Laboratory results from PubChem BioAssay AID2060885 (Molecular Pharmacology Branch, DTP, NCI, 2025).

Tested on: NCI-H23 complex spheroids with HUVEC/MSC, viability
Assay: Anticancer human tumor NCI-H23 cell line growth inhibition [RAS];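 note: spheroids exposed to compound for 7 days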;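 for viability, T/C: 100% = DMSO vehicle control viability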
Conditions: for IC50: curve of first compound; for viability, T/C: stronger effect = lower value
Method in brief: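 Multi-cell-type spheroids: tumor cells plus HUVEC endothelial cells and mesenchymal stem cells. RAS-pathway inhibitors were combined with targeted agents, each dosed in half-log steps down from clinical Cmax, or from 10 microM when Cmax was unknown.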

What does the source list for `C=CC(=O)N1CCN(c2nc(OCC3CCCN3C)nc3c(F)c(-c4nc(N)cc(C)c4C(F)(F)F)c(Cl)cc23)C(C)C1` (centres undefined) + CCn1c(-c2cccnc2C(C)OC)c2c3cc(ccc31)N1CCOC(CC(NC(=O)C(C(C)C)N(C)C(=O)C3(F)CCN(C(=O)C#CC(C)(C)N(C)C)CC3)C(=O)N3CCCC(N3)C(=O)OCC(C)(C)C2)C1?
IC50 (second compound 0.000949 µM): < 3.16 nM; IC50 (second compound 0.003 µM): < 3.16 nM; IC50 (second compound 0.00949 µM): < 3.16 nM; IC50 (second compound 0.03 µM): < 3.16 nM; IC50 (second compound 0.0949 µM): < 3.16 nM; IC50 (second compound 0.3 µM): < 3.16 nM; viability, T/C (second compound 0.000949 µM, first compound 0.00316 µM): 34.7%; viability, T/C (second compound 0.000949 µM, first compound 0.01 µM): 35.5%; viability, T/C (second compound 0.000949 µM, first compound 0.0316 µM): 24.3%; viability, T/C (second compound 0.000949 µM, first compound 0.1 µM): 28.4%; viability, T/C (second compound 0.000949 µM, first compound 0.316 µM): 29.2%; viability, T/C (second compound 0.000949 µM, first compound 1 µM): 25.6%; viability, T/C (second compound 0.003 µM, first compound 0.00316 µM): 33.6%; viability, T/C (second compound 0.003 µM, first compound 0.01 µM): 28.5%; viability, T/C (second compound 0.003 µM, first compound 0.0316 µM): 25.6%; viability, T/C (second compound 0.003 µM, first compound 0.1 µM): 29.4%; viability, T/C (second compound 0.003 µM, first compound 0.316 µM): 31.5%; viability, T/C (second compound 0.003 µM, first compound 1 µM): 27.6%; viability, T/C (second compound 0.00949 µM, first compound 0.00316 µM): 26.8%; viability, T/C (second compound 0.00949 µM, first compound 0.01 µM): 26.7%; viability, T/C (second compound 0.00949 µM, first compound 0.0316 µM): 37.2%; viability, T/C (second compound 0.00949 µM, first compound 0.1 µM): 30.9%; viability, T/C (second compound 0.00949 µM, first compound 0.316 µM): 27.7%; viability, T/C (second compound 0.00949 µM, first compound 1 µM): 25.9%; viability, T/C (second compound 0.03 µM, first compound 0.00316 µM): 30.2%; viability, T/C (second compound 0.03 µM, first compound 0.01 µM): 30.5%; viability, T/C (second compound 0.03 µM, first compound 0.0316 µM): 35%; viability, T/C (second compound 0.03 µM, first compound 0.1 µM): 27.2%; viability, T/C (second compound 0.03 µM, first compound 0.316 µM): 27.1%; viability, T/C (second compound 0.03 µM, first compound 1 µM): 29.7%; viability, T/C (second compound 0.0949 µM, first compound 0.00316 µM): 28.5%; viability, T/C (second compound 0.0949 µM, first compound 0.01 µM): 31.4%; viability, T/C (second compound 0.0949 µM, first compound 0.0316 µM): 26.9%; viability, T/C (second compound 0.0949 µM, first compound 0.1 µM): 27.3%; viability, T/C (second compound 0.0949 µM, first compound 0.316 µM): 24.9%; viability, T/C (second compound 0.0949 µM, first compound 1 µM): 32.7%; viability, T/C (second compound 0.3 µM, first compound 0.00316 µM): 25.8%; viability, T/C (second compound 0.3 µM, first compound 0.01 µM): 30%; viability, T/C (second compound 0.3 µM, first compound 0.0316 µM): 24.4%; viability, T/C (second compound 0.3 µM, first compound 0.1 µM): 26.2%; viability, T/C (second compound 0.3 µM, first compound 0.316 µM): 26%; viability, T/C (second compound 0.3 µM, first compound 1 µM): 29.3%

Which IC50 (second compound 0.000949 µM) does the source give for `CC1(C)CCC(Nc2ncc(C(F)(F)F)c(-c3c[nH]c4c(P(C)(C)=O)c(C#N)ccc34)n2)CN1` (centres undefined) + CCn1c(-c2cccnc2C(C)OC)c2c3cc(ccc31)N1CCOC(CC(NC(=O)C(C(C)C)N(C)C(=O)C3(F)CCN(C(=O)C#CC(C)(C)N(C)C)CC3)C(=O)N3CCCC(N3)C(=O)OCC(C)(C)C2)C1 here?
Its IC50 is < 0.949 nM.

What about the IC50 (second compound 0.003 µM) of the same compound?
Its IC50 is < 0.949 nM.

What about the IC50 (second compound 0.00949 µM) of the same compound?
Its IC50 is < 0.949 nM.

What about the IC50 (second compound 0.03 µM) of the same compound?
Its IC50 is < 0.949 nM.

What about the IC50 (second compound 0.0949 µM) of the same compound?
The IC50 was < 0.949 nM.

What about the IC50 (second compound 0.3 µM) of the same compound?
The IC50 was < 0.949 nM.

And the viability, T/C (second compound 0.000949 µM, first compound 0.000949 µM)?
Its viability, T/C is 26%.

And the viability, T/C (second compound 0.000949 µM, first compound 0.003 µM)?
The viability, T/C was 21.2%.

What about the viability, T/C (second compound 0.000949 µM, first compound 0.00949 µM) of the same compound?
Its viability, T/C is 14%.

What about the viability, T/C (second compound 0.000949 µM, first compound 0.03 µM) of the same compound?
The viability, T/C was 16.1%.

What about the viability, T/C (second compound 0.000949 µM, first compound 0.0949 µM) of the same compound?
Its viability, T/C is 14.7%.

And the viability, T/C (second compound 0.000949 µM, first compound 0.3 µM)?
Its viability, T/C is 11.3%.

What about the viability, T/C (second compound 0.003 µM, first compound 0.000949 µM) of the same compound?
The viability, T/C was 22.4%.

What about the viability, T/C (second compound 0.003 µM, first compound 0.003 µM) of the same compound?
The viability, T/C was 17.4%.

And the viability, T/C (second compound 0.003 µM, first compound 0.00949 µM)?
The viability, T/C was 15.5%.

And the viability, T/C (second compound 0.003 µM, first compound 0.03 µM)?
The viability, T/C was 15.2%.

And the viability, T/C (second compound 0.003 µM, first compound 0.0949 µM)?
Its viability, T/C is 15%.

What about the viability, T/C (second compound 0.003 µM, first compound 0.3 µM) of the same compound?
Its viability, T/C is 11.6%.

And the viability, T/C (second compound 0.00949 µM, first compound 0.000949 µM)?
The viability, T/C was 23.9%.

And the viability, T/C (second compound 0.00949 µM, first compound 0.003 µM)?
Its viability, T/C is 17.5%.

And the viability, T/C (second compound 0.00949 µM, first compound 0.00949 µM)?
Its viability, T/C is 15.9%.

And the viability, T/C (second compound 0.00949 µM, first compound 0.03 µM)?
Its viability, T/C is 15%.

And the viability, T/C (second compound 0.00949 µM, first compound 0.0949 µM)?
Its viability, T/C is 13.1%.

What about the viability, T/C (second compound 0.00949 µM, first compound 0.3 µM) of the same compound?
Its viability, T/C is 13.2%.

What about the viability, T/C (second compound 0.03 µM, first compound 0.000949 µM) of the same compound?
The viability, T/C was 21.9%.

What about the viability, T/C (second compound 0.03 µM, first compound 0.003 µM) of the same compound?
Its viability, T/C is 19.2%.

And the viability, T/C (second compound 0.03 µM, first compound 0.00949 µM)?
Its viability, T/C is 17.8%.

What about the viability, T/C (second compound 0.03 µM, first compound 0.03 µM) of the same compound?
Its viability, T/C is 15.7%.

And the viability, T/C (second compound 0.03 µM, first compound 0.0949 µM)?
The viability, T/C was 12.4%.

What about the viability, T/C (second compound 0.03 µM, first compound 0.3 µM) of the same compound?
The viability, T/C was 13.3%.

And the viability, T/C (second compound 0.0949 µM, first compound 0.000949 µM)?
Its viability, T/C is 21.8%.

What about the viability, T/C (second compound 0.0949 µM, first compound 0.003 µM) of the same compound?
Its viability, T/C is 19.2%.

What about the viability, T/C (second compound 0.0949 µM, first compound 0.00949 µM) of the same compound?
The viability, T/C was 16.8%.

And the viability, T/C (second compound 0.0949 µM, first compound 0.03 µM)?
The viability, T/C was 13.8%.

And the viability, T/C (second compound 0.0949 µM, first compound 0.0949 µM)?
The viability, T/C was 11.8%.

What about the viability, T/C (second compound 0.0949 µM, first compound 0.3 µM) of the same compound?
Its viability, T/C is 13.2%.

What about the viability, T/C (second compound 0.3 µM, first compound 0.000949 µM) of the same compound?
The viability, T/C was 18.8%.

And the viability, T/C (second compound 0.3 µM, first compound 0.003 µM)?
The viability, T/C was 17.9%.

What about the viability, T/C (second compound 0.3 µM, first compound 0.00949 µM) of the same compound?
Its viability, T/C is 15.3%.

And the viability, T/C (second compound 0.3 µM, first compound 0.03 µM)?
The viability, T/C was 12.3%.

And the viability, T/C (second compound 0.3 µM, first compound 0.0949 µM)?
The viability, T/C was 11.3%.

What about the viability, T/C (second compound 0.3 µM, first compound 0.3 µM) of the same compound?
Its viability, T/C is 13.7%.
